From PubChem BioAssay (NCI) come the findings set out here.

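The compound was tested at five concentrations on cells cultured in 96-well plates, with a 48-hour exposure period. Abbreviation: GI50, concentration required for 50% inhibition of growth. TGI denotes the concentration required for complete inhibition of growth.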 Bounds are passed on as bounds.

Assay in all cases: NCI anticancer screen, dose series, 48 h
For experiment [1], the system named is ACHN renal.
Experiment [2] concerns HCT-116 colon.
Experiment [3] concerns HOP-62 NSCLC.
Experiment [4] has as its system IGROV1 ovarian.
The subject of experiment [5] is K-562 leukemia.
Experiment [6] relates to KM12 colon.
Experiment [7] concerns LOX IMVI melanoma.
Experiment [8] concerns SF-295 CNS.
In experiment [9] the test system is SR leukemia.
Experiment [10] relates to UACC-62 melanoma.

As for `O=C(Nc1ccc(Cl)cc1)c1cc(-c2ccc(F)cc2)c2sc(=O)[nH]c2n1`, the GI50 in [1] is 1.69 µM; in experiment [2], 1.43 µM; in experiment [3] it was 2.04 µM; in [4], 1.78 µM; in experiment [5], 0.581 µM; in experiment [6], 1.81 µM. Besides, the GI50 is 1.68 µM in experiment [7], 1.1 µM in experiment [8], 0.672 µM in experiment [9] and 0.366 µM in experiment [10]. Moreover, the TGI in experiment [1] was found to be 4.02 µM; in experiment [2], 2.96 µM; in [3], 5.69 µM; in [4], 7.06 µM; in [5], 10.9 µM; in [6], 6.04 µM. Further, the TGI in [7] worked out at 4.43 µM; in experiment [8] it was 3.8 µM; in [9] it was 10.5 µM; in experiment [10] it was 2.32 µM.
With `CCN(CC)c1sc(N(CC)CC)c2c1SSSSS2`, the GI50 in [1] is 1.07 µM; in [2], 0.356 µM; in experiment [3] it was 2.61 µM; in [4] it was 0.715 µM; in experiment [5], 1.64 µM; in [6], 1.68 µM. The GI50 in experiment [7] is 1.01 µM; in experiment [8], 2.09 µM; in experiment [9] it was 0.267 µM; in [10], 0.721 µM. Further, the TGI in [1] was 3.28 µM; in experiment [2] it was 1.14 µM; in experiment [3], 4.99 µM; in experiment [4], 2.77 µM; in experiment [5] it was over 100 µM; in experiment [6] it was 3.55 µM. The TGI in experiment [7] was 3.31 µM; in [8], 4.04 µM; in [9] it was 0.998 µM; in [10] it was 1.87 µM.
Turning to `Cc1cc(SCC(=O)c2ccccc2)nc2ccccc12`, the TGI in [1], in experiment [2], in experiment [3], in experiment [4], in experiment [5] and in experiment [6] was over 100 µM each time. In addition, the TGI in experiment [7], in [8], in experiment [9] and in [10] was over 100 µM in each case.
As to `COC(=O)Nc1nc2ccc(Oc3ccc(NC(=O)Nc4ccccc4)cc3)cc2[nH]1`, the GI50 in experiment [1] is 0.466 µM; in [2] it was 0.119 µM; in experiment [3], 0.109 µM; in experiment [4], 0.665 µM; in [5], 0.105 µM; in experiment [6], 0.106 µM. Also, the GI50 in experiment [7] is 0.178 µM; in experiment [8], 0.121 µM; in experiment [9], 0.0744 µM; in experiment [10], 0.0933 µM. Also, the TGI was over 25 µM in experiment [1]; over 10.4 µM in experiment [2]; 2.52 µM in experiment [3]; over 10.9 µM in experiment [4]; over 9.63 µM in [5]; 4.87 µM in experiment [6]. Moreover, the TGI in experiment [7] was over 9.6 µM; in [8], 2.23 µM; in experiment [9], over 8.46 µM; in [10], 4.5 µM.
For the compound `CC/C=C\C[C@@H]1C/C=C2/C(=O)C=C[C@H]2C/C=C\CCCC(=O)O1`, the GI50 in experiment [1] is 0.183 µM; in experiment [2], 0.133 µM; in experiment [3] it was 1.07 µM; in experiment [4], 0.91 µM; in [5], 0.239 µM; in experiment [6] it was 0.262 µM. Moreover, the GI50 in experiment [7] is 0.145 µM; in [8], 1.18 µM; in experiment [9], 0.17 µM; in experiment [10] it was 0.735 µM. The TGI in experiment [1] is 0.372 µM; in [2] it was 0.32 µM; in [3] it was 3.68 µM; in [4], 3.93 µM; in [5] it was 0.724 µM; in experiment [6], 0.767 µM. Also, the TGI in [7] was found to be 0.323 µM; in experiment [8], 2.73 µM; in experiment [9], 0.731 µM; in experiment [10], 2.66 µM.
On to `CCN(CC)CCCC(C)Nc1c(C)cnc2cc(Cl)c(C)cc12` (stereo unspecified), for which the GI50 is 5.49 µM in [1]; 2.56 µM in [2]; 18.2 µM in experiment [3]; 25.9 µM in experiment [4]; 1.26 µM in experiment [5]; 13.8 µM in [6]. The GI50 in experiment [7] is 2.17 µM; in [8] it was 11.3 µM; in [10], 3.44 µM. In addition, the TGI in [1] was found to be 31.5 µM; in experiment [2] it was 13.6 µM; in experiment [3], 32.9 µM; in experiment [4], 74.7 µM; in experiment [5], 8.36 µM; in [6] it was 28.6 µM. In addition, the TGI in [7] is 10.7 µM; in [8] it was 28.1 µM; in [9] it was 3.17 µM; in experiment [10], 11.1 µM.
As for `O=C(N/N=C/c1cccc(O)c1O)c1ccccc1`, the GI50 in experiment [1] was 0.477 µM; in [2] it was 0.388 µM; in experiment [3] it was 1.52 µM; in [4], 3.49 µM; in [5], 1.29 µM; in experiment [6], 0.769 µM. For the same compound, the GI50 was 0.511 µM in [7], 2.28 µM in [8], 0.412 µM in experiment [9] and 0.902 µM in experiment [10]. The TGI in experiment [1], in experiment [2], in [3], in experiment [4], in experiment [5] and in experiment [6] was over 100 µM each time. Moreover, the TGI in experiment [7] is over 100 µM; in [8] it was over 100 µM; in [9], over 76 µM; in experiment [10], 5.32 µM.
As for `COC(=O)c1cccc2cccc(C(=O)Nc3ccc(C)cc3C)c12`, the TGI in experiment [1], in experiment [2], in experiment [3], in experiment [4], in experiment [5] and in experiment [6] was over 100 µM in each case. Besides, the TGI in [7], in [8], in [9] and in [10] was over 100 µM throughout.
In the case of `Cn1cc(C(=O)c2ccccc2)ccc1=O`, the TGI in experiment [1], in [2], in experiment [3], in experiment [4], in [5] and in experiment [6] was over 100 µM in each case. The TGI in experiment [7], in experiment [8], in [9] and in experiment [10] was over 100 µM each time.
As for `COc1ccc2c(c1)CCC1C3(CCCC21C)OCCO3` (stereo unspecified), the TGI in experiment [1] was 78.9 µM; in experiment [2], 30.5 µM; in [3] it was 28.4 µM; in experiment [4], 79.4 µM; in [5] it was 42.1 µM; in experiment [6], 51.7 µM. Moreover, the TGI was 30.4 µM in experiment [7], 40.8 µM in experiment [8], 45.4 µM in experiment [9] and 38 µM in [10].
With `CC1CN1CC(O)C(O)CN1CC1C` (stereo unspecified), the GI50 in experiment [1] is 0.395 µM; in [2], 2.29 µM; in experiment [3], 2.89 µM; in [4], 4.09 µM; in experiment [5], 2.02 µM; in experiment [6], 7.37 µM. Further, the GI50 in [7] was 0.814 µM; in [8], 0.494 µM; in experiment [9], 0.053 µM; in [10], 2.99 µM. The TGI was over 100 µM in experiment [2]; over 71.9 µM in experiment [3]; 42.2 µM in experiment [4]; over 100 µM in experiment [5]; 23 µM in experiment [6]; 11.4 µM in [7]. Besides, the TGI is over 33.4 µM in [8], over 100 µM in experiment [9] and over 53.2 µM in experiment [10].
As to `COc1ccc2c(c1)C=C([N+](=O)[O-])C(C1OC(C)(C)OC1C1COC(C)(C)O1)O2` (stereo unspecified), the TGI came to 6.53 µM in [1]; 4.04 µM in experiment [2]; 37.4 µM in experiment [3]; 31.7 µM in experiment [4]; 4.88 µM in experiment [5]; 4.31 µM in [6]. In addition, the TGI in [7] came out at 2.92 µM; in experiment [8] it was 22.2 µM; in experiment [9], 6.93 µM; in experiment [10], 3.72 µM.
On to `Cc1cccc(NC(=O)C(=O)Cc2nc3ccccc3[nH]c2=O)c1C`, for which the TGI in experiment [1], in experiment [2], in experiment [3], in experiment [4], in experiment [5] and in experiment [6] was over 100 µM throughout. Also, the TGI in experiment [7], in [8], in experiment [9] and in [10] was over 100 µM throughout.
In the case of `CC1=C2C(=O)O[C@@H](c3ccoc3)[C@]2(C)CCC1`, the TGI in experiment [1], in experiment [2], in experiment [3], in experiment [4], in experiment [5] and in [6] was over 100 µM in each case. Besides, the TGI in experiment [7], in [8], in experiment [9] and in experiment [10] was over 100 µM each time.
Take `COc1cc(OC)c(/C=C/C(=O)c2c(OC)cccc2OC)c(OC)c1`: the GI50 was 0.703 µM in experiment [1]; 0.394 µM in experiment [2]; 0.742 µM in experiment [3]; 0.497 µM in [4]; 0.444 µM in [5]; 0.59 µM in experiment [6]. Moreover, the GI50 in experiment [7] was 0.566 µM; in [8], 0.395 µM; in experiment [9] it was 0.517 µM; in experiment [10], 0.362 µM. Besides, the TGI is over 100 µM in [1]; over 100 µM in [2]; over 100 µM in [3]; over 100 µM in [5]; over 26 µM in experiment [6]; over 100 µM in [7]. In addition, the TGI is over 100 µM in experiment [9] and 3.06 µM in [10].
With `NC(=S)N/N=C/c1ccc(OC(=O)COc2ccc(Cl)cc2)cn1`, the GI50 in [1] is 3.39 µM; in experiment [2] it was 4.93 µM; in experiment [3], 14.6 µM; in [4], 16.4 µM; in [5], 1.36 µM; in experiment [6], 3.18 µM. Besides, the GI50 in experiment [7] is 3.18 µM; in experiment [8] it was 20.8 µM; in experiment [9], 0.498 µM; in experiment [10], 4.17 µM. Also, the TGI is over 100 µM in [1]; over 100 µM in experiment [2]; 91.1 µM in experiment [3]; over 100 µM in [4]; over 100 µM in [5]; over 100 µM in [6]. In addition, the TGI in experiment [7] is over 100 µM; in experiment [8] it was over 100 µM; in experiment [9], over 100 µM; in experiment [10], 60 µM.
With `CCCCCCCCCCCCCC1CCC(CC)N1` (stereo unspecified), the TGI was determined as 17.4 µM in experiment [1]; 29.6 µM in experiment [2]; 17.9 µM in experiment [3]; 36.1 µM in experiment [4]; 33.3 µM in [5]; 32.4 µM in experiment [6]. The TGI in experiment [7] is 32 µM; in [8] it was 32.6 µM; in experiment [9] it was 40.6 µM; in [10] it was 17.1 µM.
On to `Cc1ccc2nc3c(C(=O)NCCN(C)C)cccc3nc2c1`, for which the TGI in experiment [1] was 14.9 µM; in [2], 12 µM; in experiment [3] it was 14 µM; in experiment [4] it was over 60.1 µM; in experiment [5] it was 9.27 µM; in [6], 20.2 µM. In addition, the TGI is 5.19 µM in experiment [7], over 27.1 µM in experiment [8], over 100 µM in experiment [9] and 16.8 µM in [10].
Take `CC1=C(C)CC2(CCCCC2=O)S(=O)C1` (stereo unspecified): the TGI in experiment [1], in experiment [2], in [3], in experiment [4], in experiment [5] and in experiment [6] was over 100 µM in each case. For the same compound, the TGI in experiment [7], in [8], in [9] and in [10] was over 100 µM in each case.
Turning to `CCc1[nH]c(=O)nc(N)c1-c1ccc(N2CCCCC2)c([N+](=O)[O-])c1`, the TGI in experiment [1], in experiment [2], in experiment [3], in experiment [4], in [5] and in experiment [6] was over 100 µM throughout. Also, the TGI in [7], in experiment [8], in [9] and in [10] was over 100 µM in each case.
